Legend:
Format in all cases: cell-based, human
UCCs = assay: Western blot of acetylated α-tubulin and histones H3/H4; conditions: 48 h; 19i 1 or 2 μM, SAHA 2.5 μM
Experimental: Total protein extraction, purification of histones, and Western blot analysis were performed as previously described. Briefly, cells were incubated for 30 min on ice in RIPA-buffer (150 mM NaCl, 1% Triton X-100, 0.5% desoxycholate, 1% Nonidet P-40, 0.1% SDS, 1 mM EDTA, 50 mM TRIS (pH 7.6)) containing 10 μl/ml protease inhibitor cocktail (#P-8340, Sigma Aldrich, St. Louis, MO). Histones were extracted for detection of histone H3 and H4 acetylation by a modified published protocol employing sulfuric acid extraction and TCA-precipitation. Concentrations of total protein and histones were determined by BCA protein assay (Thermo Fisher Scientific, Carlsbad, CA). Subsequently, total cell proteins (15 μg) or extracted histones (2 μg) were separated by SDS-PAGE (total proteins 10–12% gels, histones 15% gels), transferred to PVDF membranes (Merck Millipore, Berlin, Germany), and were incubated with primary antibodies (at RT for 1 h or 4 °C overnight, see Additional file 3: Table S2) following blocking with 5% non-fat milk or BSA (bovine serum albumin) in TBST (150 mM NaCl, 10 mM TRIS, pH 7.4 and 0.1% Tween-20). For signal detection, membranes were incubated with a suitable horseradish peroxidase-conjugated secondary antibody (see Additional file 2: Table S1) at RT for 1 h and signals were visualized by SuperSignal™ West Femto (Thermo Fisher Scientific, Carlsbad, CA) and WesternBright Quantum kit (Biozym, Hessisch Oldendorf, Germany).

639-V [1] = assay: MTT viability assay (CC50)
Experimental: (§1) Further experiments were performed in VM-CUB1 and UM-UC-3 cells overexpressing HDAC4 (see below). Standard UCCs were obtained from the DSMZ (Braunschweig, Germany) and Dr. H.B. Grossmann HB (Houston, USA). For comparison, we investigated the spontaneously immortalized normal human bladder cell line HBLAK (provided by CELLnTEC, Bern, Switzerland) and the immortalized human embryonic kidney cell line HEK-293 (provided by Dr. V. Kolb-Bachofen, Duesseldorf, Germany). Cells were cultured and treated in DMEM GlutaMAX-I (Gibco, Darmstadt, Germany; UCCs and HEK-293) supplemented with 10% fetal calf serum (Biochrom, Berlin, Germany), except for HBLAK cultured in CnT-Prime Epithelial Culture Medium (CELLnTEC, Bern, Switzerland; HBLAK), at 37 °C and 5% CO2. STR (short tandem repeat) profiling via DNA fingerprint analysis was performed for all cell lines. Primary cultures of normal urothelial cells (UP) were established from healthy ureters removed during tumor nephrectomy and cultured as described. These cultures were used with informed consent of the patients and approval by the Ethics Committee of the Medical Faculty of the Heinrich-Heine-University, study number 1788. All inhibitors were dissolved in DMSO and stored as 10 mM stocks. […] The pan-HDACi inhibitor SAHA previously studied in detail was used for comparison. Solvent control cells were treated with equal amounts of DMSO.
(§2) For the determination of cellular mean cytotoxic concentration (CC50), UCCs, non-malignant control cells, and HDAC4-overexpressing clones were seeded in a 96-well format and treated once with a range of defined concentrations of the HDAC inhibitors. After 72 h, viability was quantified by NAD(P)H-dependent 3-(4,5-dimethylthiazol-2-yl)-2,5-diphenyltetrazolium bromide dye reduction assay (MTT, Sigma Aldrich, St. Louis, MO). CC50 values were estimated from three independent experiments by non-linear regression analysis (four-parameter logistic equation) using Prism 4.0 (Graph Pad) or Origin 8.0 (Origin Lab, Northhampton, GB). For time-dependent proliferation experiments, viability of untreated or inhibitor-treated cells was measured after 24, 48, and 72 h.

HBLAK [2] = assay: MTT viability assay (CC50); conditions: 72 h of incubation
Experimental: as §1, §2

UM-UC-3 [3] = assay: MTT viability assay (CC50); conditions: UM-UC-3, MTT
Experimental: as §1, §2

VM-CUB1 [4] = assay: MTT viability assay (CC50)
Experimental: as §1, §2

[5] = test system: UC cell lines (VM-CUB1, UM-UC-3, 639-V); assay: MTT viability assay, UC cell lines taken together; conditions: MTT and HCA live/dead assays
Experimental: Further experiments were performed in VM-CUB1 and UM-UC-3 cells overexpressing HDAC4 (see below). Standard UCCs were obtained from the DSMZ (Braunschweig, Germany) and Dr. H.B. Grossmann HB (Houston, USA). For comparison, we investigated the spontaneously immortalized normal human bladder cell line HBLAK (provided by CELLnTEC, Bern, Switzerland) and the immortalized human embryonic kidney cell line HEK-293 (provided by Dr. V. Kolb-Bachofen, Duesseldorf, Germany). Cells were cultured and treated in DMEM GlutaMAX-I (Gibco, Darmstadt, Germany; UCCs and HEK-293) supplemented with 10% fetal calf serum (Biochrom, Berlin, Germany), except for HBLAK cultured in CnT-Prime Epithelial Culture Medium (CELLnTEC, Bern, Switzerland; HBLAK), at 37 °C and 5% CO2. […]
as §2, with “CC50 values were estimated from three independent experiments by non-linear regression analysis (four-parameter logistic equation) using Prism 4.0 (Graph Pad) or Origin 8.0 (Origin Lab, Northhampton, GB).” left out

639-V [6] = assay: High-content analysis-based fluorescent live/dead assay; conditions: HCA, 72 h
Experimental: (§3) Live and dead cells were assayed by high-content analysis (HCA). […] After 72 h of treatment, cells were stained with a mixture of Hoechst 33342 (Sigma Aldrich, St. Louis, MO), calcein AM (Merck Millipore, Germany), and propidium iodide (Santa Cruz Biotechnology, Heidelberg) for cell nuclei, live and dead cells. The staining solution was replaced by PBS after 20 min. Images were acquired using ArrayScan XTI Live High Content Platform (Thermo Fisher Scientific Inc., USA) using excitation filters of 386, 485, and 560 nm for Hoechst 33342, calcein AM, and propidium iodide, respectively. The results were analyzed using HCS Studio Cellomics Scan (Thermo Fisher Scientific Inc., USA).

HBLAK [7] = assay: as above; conditions: HCA, 72 h
Experimental: as §3

UM-UC-3 [8] = assay: as above; conditions: UM-UC-3, HCA, 72 h
Experimental: as §3

VM-CUB1 [9] = assay: as above; conditions: VMCub1, HCA, 72 h
Experimental: as §3

O=C(CCCCCCC(=O)Nc1ccccc1)NO [SAHA, suberoylanilide hydroxamic acid, reference compound]
acetylation of α-tubulin (UCCs): strongly induced

O=C(NCC1(c2nc(-c3ccccc3)cs2)CCOCC1)c1cccc(-c2noc(C(F)(F)F)n2)c1 [TMP269]
CC50 (639-V [1]; 24 h): 96.1 µM | CC50 (639-V [1]; 48 h): 65.8 µM | CC50 (639-V [1]; 72 h of incubation): 39.4 µM | CC50 (HBLAK [2]): 48.7 µM | CC50 (UM-UC-3 [3]; 24 h): 110 µM | CC50 (UM-UC-3 [3]; 48 h): 73.8 µM | CC50 (UM-UC-3 [3]; 72 h of incubation): 32.3 µM | CC50 (VM-CUB1 [4]; VM-CUB1, MTT, 72 h of incubation): 45.9 µM | CC50 (VM-CUB1 [4]; VMCub1, MTT, 24 h): 115 µM | CC50 (VM-CUB1 [4]; VMCub1, MTT, 48 h): 115 µM | concentrations effective on / impeding proliferation of UC cell lines [5]: > 10 µM | CC50 (639-V [6]): 16.5 µM | CC50 (HBLAK [7]): 10.6 µM | CC50 (UM-UC-3 [8]): 14.6 µM | CC50 (VM-CUB1 [9]): 20.1 µM

Reference: PMC6069857, “Effects of novel HDAC inhibitors on urothelial carcinoma cells” (Clinical Epigenetics, 2018)
